Data reported in paper PMC4838890, “Dynamic and flexible H3K9me3 bridging via HP1β dimerization establishes a plastic state of condensed chromatin” (Nature Communications, 2016).

What was measured:
[1] = system: DNA fragment of 150 bp; test: Electrophoretic mobility shift assay (EMSA); format: binding; conditions: 150 bp DNA, 0, 3, 9 μM protein, 100 mM NaCl, 5 mM MgCl2, RT
Experimental: 50 ng 150 bp DNA amplified from the backbone of pUC18 was incubated with 0, 3, 9 μM recombinant protein in 10 μl EMSA buffer (10 mM Tris-HCl (pH 8.0), 100 mM NaCl, 5 mM MgCl2) for 20 min at room temperature (RT). 2 μl 50% (v/v) glycerol was added and samples were loaded onto 6% native PAGE gels. After electrophoresis, DNA was visualized by staining with 1 × SYBR Gold/0.25 × TBE for 20 min at RT. Images were captured using a ChemiDoc MP Imaging System (Bio-Rad, München, Germany). […]
crosslinking Fig. S6e,f nucleosomes […]
crosslinking Fig. S7a,b nucleosomes
EMSA Fig. 1g; Fig. 5c; n//a RT 100 5
1Preincubation of oligonucleosomes and h HP1β was performed at 4 °C . Measurements wer e carried out at the in dicated te mperature.
2in increments o f 0 .5 mM
3MgCl2 was added at the end of incubation to coprecipitate oligonucleosomes a nd bound hHP1β.

[2] = system: H3K9me0 and H3K9me3 chromatin; conditions: ref [12]; cited from earlier work
From the text: In our model, modulation of the general chromatin-binding mode is brought about by varying sequences in the HR and NT domains as well as possibly their post-translational modification in other HP1 proteins (different variants, different species). We think that within these regions the overall charge but not a particular sequence is mainly dictating the chromatin-binding properties.

[3] = system: H3K9me3 oligonucleosomes; test: Chromatin coprecipitation, H3K9me3 oligonucleosomes; format: binding, Xenopus laevis; conditions: chromatin coprecipitation, 5 mM MgCl2
Experimental: 6.7 nM oligonucleosomes were incubated with 1 μM recombinant protein in 100 μl binding buffer (10 mM triethanolamine (pH 7.5), 150 mM NaCl, 5 mM MgCl2, 0.1 mM EDTA, 0.1% (v/v) Triton-X100) for 1 h on ice. Precipitated chromatin complexes were recovered by centrifugation at 16,100g for 30 min at 4°C. Pellets were washed once with 0.5 ml binding buffer and centrifuged for 15 min at 4 °C. Precipitated material was resuspended in 10 μl 1 × SDS loading buffer and boiled for 5 min before running on SDS–PAGE.
Supplementary Table 1: Summary of conditions used in the different experiments of this study.
experiment result modification template Temp. [NaCl] [MgCl2]
chromatin Fig. 1e,f; Fig. S1f-h; H3K9me3 oligo- 4 150 5

Substance: hHP1α WT: recombinant human HP1α (GenBank BC006821) [reference compound]
- DNA binding [1]: high level of general DNA binding
- discrimination between H3K9me0 and H3K9me3 chromatin [2]: limited discrimination between H3K9me0 and H3K9me3 chromatin
- specificity for H3K9me3 [3]: much less specificity for H3K9me3 compared with hHP1β
